We go through 4 compounds from PMC3445262 (International immunopharmacology, 2011).

Assay [1] has as its target CB2 receptor mutant W5.43(194)Y (Homo sapiens, UniProt P34972, W194Y). The class given is binding. The note with it: W5.43(194)Y vs CB2 WT.
Assay [2] addresses CB2 W194A mutant receptor in HEK293 cells (Homo sapiens, UniProt P34972, W194A). Type of assay: cell-based.
The target of assay [3] is CB2 W194Y mutant receptor in HEK293 cells (Homo sapiens, UniProt P34972, W194Y). Type of assay: cell-based.
Assay [4] addresses CB2 WT receptor in HEK293 cells (Homo sapiens, UniProt P34972). The class given is cell-based.
The target in assay [5] is CB2 W194F mutant receptor in HEK293 cells (Homo sapiens, UniProt P34972, W194F). Type of assay: cell-based.
The subject of assay [6] is CB1 W5.43(280)A. The following applies: cited from earlier work.
The test system of assay [7] is CB1 W5.43(280)A. The following applies: cited from earlier work. This is another data set of the same source.

Sequence of CB2 receptor mutant W5.43(194)Y (P34972 whole entry W194Y): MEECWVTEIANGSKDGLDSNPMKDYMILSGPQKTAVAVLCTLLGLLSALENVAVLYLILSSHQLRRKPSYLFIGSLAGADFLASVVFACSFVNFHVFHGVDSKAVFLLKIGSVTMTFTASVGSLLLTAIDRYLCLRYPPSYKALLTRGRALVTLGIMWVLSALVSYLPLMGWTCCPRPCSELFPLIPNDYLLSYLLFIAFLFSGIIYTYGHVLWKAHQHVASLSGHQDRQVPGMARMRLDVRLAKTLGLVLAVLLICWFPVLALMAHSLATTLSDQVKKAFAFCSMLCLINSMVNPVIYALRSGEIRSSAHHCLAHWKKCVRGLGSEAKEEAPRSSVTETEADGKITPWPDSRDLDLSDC
Sequence of CB2 W194Y mutant receptor in HEK293 cells (P34972 whole entry W194Y): as above
Sequence of CB2 W194A mutant receptor in HEK293 cells (P34972 whole entry W194A): as the sequence (P34972 whole entry W194Y) above, with Y194A counted along it
Sequence of CB2 W194F mutant receptor in HEK293 cells (P34972 whole entry W194F): as the sequence (P34972 whole entry W194Y) above, with Y194F counted along it
Sequence of CB2 WT receptor in HEK293 cells (P34972 whole entry): as the sequence (P34972 whole entry W194Y) above, with Y194W counted along it

As for `CCCCCCC(C)(C)c1ccc([C@@H]2C[C@H](O)CC[C@H]2CCCO)c(O)c1` [CP55940], the “Reduction of binding affinity by W5.43(194)Y mutation compared with wild-type” value in assay [1] is “no effect”.
Usually EC50 stands for the concentration at which the effect is half-maximal. A higher EC50 goes with a less potent agent. `C=C[C@@]1(C)CC(=O)[C@]2(O)[C@@]3(C)[C@@H](O)CCC(C)(C)[C@@H]3[C@H](O)[C@H](OC(C)=O)[C@@]2(C)O1` [Forskolin, forskolin]: the EC50 in assay [2] was 2420 nM; in assay [3] it was 2020 nM; in assay [4] it was 1320 nM; in assay [5], 1810 nM.
Take `Cc1c(C(=O)c2cccc3ccccc23)c2cccc3c2n1[C@H](CN1CCOCC1)CO3` [WIN55212-2]: the “Reduction of WIN55212-2 stimulated GTPγS binding by CB1 W5.43(280)A mutation” value in assay [6] is 245 fold. Moreover, in assay [7], the “Reduction of binding by CB1 W5.43(280)A mutation” value is reported as 16.8 fold.
Consider SR144528, for which the “Reduction of binding affinity by W5.43(194)Y mutation compared with wild-type” value in assay [1] came out at 5 fold.
